US5631246A, “Use of PAF” (The Canadian Red Cross Society, priority 1993, dated 1997)

What was measured:
[1] = system: endothelial cells (ECs); assay: vWf release from ECs exposed directly to PAF or thrombin; conditions: for Increase in vWf release (%), BTP-dioxolane absent: 4 hours
Description: Synthetic PAF (1-O-alkyl-2-acetyl-sn-glyceryl-3-phosphorylcholine; Sigma #P-9525) prepared from bovine heart lecithin (Demopoulos et al. (1979) J. Biol. Chem. 254: 9355-358) was 99% pure by TLC analysis, HPLC analysis indicated this product consisted of 70% C16 and 13% C18 forms of PAF (Mita et al., (1989) Anal. Biochem. 180:131-135). After removal of chloroform, PAF was resuspended in DMEM/F12 culture medium containing 1% Nutridoma-HU (final protein concentration of 40 μM stock solution). After sonication for 3×1 minute periods, the PAF solution was diluted and used immediately.
Media with or without thrombin (@5 units/mL) served as positive and negative controls respectively. ECs were incubated for 1, 10, 20 or 30 minutes and 1, 2, 4, 6 and 24 hours in the PAF and thrombin time course studies. The EC conditioned media were recovered, centrifuged to remove any cell debris, and then frozen at -80° C. for a maximum period of 4 weeks prior to analyses. […] Where appropriate ECs were preincubated with BTP-dioxolane which was not cytotoxic to the cells as determined by the dye exclusion test.
Endothelial cells (ECs) were harvested from human umbilical cord vein as described by Jaffe et al. ((1973) Culture of Human Endothelial Cells Derived from Umbilical Veins: Identification by Morphologic and Immunologic Criteria, J. Clin. Invest. 52:2745-2756) and modified by Hashemi et al. (1990, supra). Endothelial cells were subcultured in 0.2% (w/v) gelatin-coated, 12-well Linbro™ polystyrene, tissue culture plates (Flow Laboratories, Mississauga, Ontario), then plated at a density of 1-2×10^4 /well and grown to confluence.
The standard consisted of a pool of plasma from 20 normal individuals previously determined to contain 1 unit of vWf per mL by the procedure of Zimmerman et al. (1977, J. Clin. Invest. 59:984-989). […] For some experiments, the maximum vWf that could be released was determined. Following incubation, the EC conditioned media were recovered and fresh media containing 0.05% (v/v) Tween 20 and 10 μM each of the protease inhibitors D-phenylalanyl-phenylalanyl-arginyl-chloromethyl ketone, D-phenylalanyl-propyl-arginyl-chloromethyl ketone and 1,5-Dansyl-glutamyl-glycyl-arginyl-chloromethyl ketone were added to the EC monolayers of each corresponding well. The cells were freeze-thawed three times and, to assure complete breakdown of the cell membranes as well as the Weibel-Palade bodies, disrupted in a glass homogenizer using a motor-driven teflon pestle. After centrifugation, total vWf concentration was determined in the supernatants.
In order to examine the responsiveness of ECs to direct PAF exposure, we incubated the monolayers of ECs with 0-300 pico molar (pM) PAF for a period of 4 hours at 37° C. and determined the amount of vWf released into the EC media. […] To determine the time course of PAF effects on vWf release, 300 pM PAF was incubated with monolayers of ECs for 1, 10, 20 and 30 minutes as well as for 1, 2, 4, 6 and 24 hours. […] As a control, the vWf release from thrombin stimulated ECs was also determined (FIG. 5).

[2] = system: ECs; conditions: stimulation with PAF; D'Humieres et al. (1986); cited from earlier work
[3] = Stability of PAF in stored monocyte conditioned media; type: physicochemical; conditions: -80° C., various periods of time; within experimental error
Description: In addition, PAF was extracted from the monocyte supernatants and assayed using the following highly specific and sensitive radioimmunoassay. As the most predominant bioactive forms of PAF secreted by monocytes are the C16 and C18 alkyl moieties (Sugiura and Waku, (1987) Platelet-Activating Factor and Related Lipid Mediators, F. Snyder Ed. Plenum Press, N.Y. 55-85; Prescott et al. (1990) Proc. Natl. Acad. Sci. U.S.A. 81:3534-3538), PAF was quantitated using the highly specific and sensitive ^125 I-RIA kit manufactured by NEN Research Products (Du Pont Canada, Mississauga, Ontario, Canada) following extraction of the monocyte supernatants with 5 mL each of methanol and chloroform and 3.5 mL of water per mL of sample. The recovered chloroform layers, dried under nitrogen, were reconstituted in the PAF assay kit buffer prior to analysis. […] Recoveries of PAF (90±1%, n=>130) were assessed by adding trace amounts of ^3 H-PAF to the sample prior to extraction and determining the % recoveries using a liquid scintillation counter (Model-7000, Beckman Instruments Canada). Iodinated samples were counted on a Beckman Gamma 5500 counter (Beckman Instruments, Fullerton, Calif.). […]

Substance: 1-O-alkyl-2-acetyl-sn-glyceryl-3-phosphorylcholine [PAF]
- vWf release from ECs (maximal) ([1]; 300 pM PAF, 30 minutes, P<0.05, n=5): 151%
- vWf release as share of the maximal vWf recoverable ([1]; 300 pM PAF, 30 minutes, […]): ~ 4%
- time course of vWf release from ECs ([1]; 300 pM PAF, FIG. 5): released vWf at all time points up to 24 hours
- PAF concentration range of greatest vWf release response ([1]; FIG. 4, 4 hours at 37° C., n=5): 100 to 300 pM
- Increase in vWf release (%), BTP-dioxolane absent ([1]; PAF 100 pM, n=5): 190.8 ± 46.6%
- Increase in vWf release (%), BTP-dioxolane absent ([1]; PAF 300 pM, n=5): 204.2 ± 48.7%
- PGI2 release from ECs [2]: release PGI2 in response to stimulation
- PAF values in monocyte conditioned media after storage [3]: gave the same values
